Paper PMC4550094 (Journal of biomolecular screening, 2013)
Read-outs that look alike come from different tables or passages of the source.

Tests used:
HepG2 cells = experiment: LipidTOX Red PLD assay, qHTS, 1536-well high-content imaging; format: cell-based, Human; settings: for EC50: Homo sapiens, HepG2, 24 h
isolated lamellar bodies = settings: Binding study; cited from earlier work

In the case of `CC(CN(C)C)CN1c2ccccc2CCc2ccccc21` (stereo not shown) [Trimipramine], the “PLD induction (result in words)” value (HepG2 cells; HepG2, primary screen and cherry-pick confirmation) is reported as “induce PLD”, the EC50 (HepG2 cells; read-out: Confirmation EC50 (PLD induction)) is reported as 8.7 ± 1.2 µM and the EC50 (HepG2 cells; read-out: Primary Screen EC50 (PLD induction)) is reported as 3.5 µM. For the same compound, the “Literature-Reported: Active at (concentration)” value (isolated lamellar bodies) was “Active at 1 mM”.
